Measurements: patent publication US20130150325A1, “3-(Fluorovinyl)pyrazoles and their use” (BAYER INTELLECTUAL PROPERTY GMBH, priority 2011, published 2013)

Test system: HCT 116 cells transfected with a luciferase reporter under the control of an HIF-responsive sequence
Experiment: HIF-luciferase assay
Format: cell-based
Conditions: Homo sapiens; HCT 116 HIF-luciferase reporter cells, hypoxia chamber (1% O2), 24 h; in some cases means of up to four individual determinations
How it was run: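 Stably transfected HCT 116 cells, plated overnight under normoxia, were exposed to test substances (0-10 μmol/l) for 24 h at 1% O2. Luminescence was read 5 min after adding luciferase reagent, with normoxic cells as background controls. IC50 derived from the hypoxia-driven signal.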

Row | Structure (SMILES) | IC50
1 | CCNc1ccc(Cn2nc(/C(F)=C/c3ccc(C(O)(C(F)(F)F)C(F)(F)F)cc3)cc2C)cn1 [Example 97, 2-{4-[(Z)-2-(1-{[6-(Ethylamino)pyridin-3-yl]methyl}-5-methyl-1H-pyrazol-3-yl)-2-fluorovinyl]-phenyl}-1,1,1,3,3,3-hexafluoropropan-2-ol] | 20 nM
2 | Cc1cc(/C(F)=C/c2ccc([Si](C)(C)C)cc2)nn1Cc1ccnc(N2CCN(C3CC3)CC2)c1 [Example 106, 1-Cyclopropyl-4-{4-[(3-{(Z)-1-fluoro-2-[4-(trimethylsilyl)phenyl]vinyl}-5-methyl-1H-pyrazol-1-yl)methyl]pyridin-2-yl}piperazine] | 0.5 nM
3 | Cc1cc(/C(F)=C/c2ccc(CN(C(C)C)C(C)C)cc2)nn1Cc1ccnc(N2CCN(C3CC3)CC2)c1 [Example 109, N-{4-[(Z)-2-(1-{[2-(4-Cyclopropylpiperazin-1-yl)pyridin-4-yl]methyl}-5-methyl-1H-pyrazol-3-yl)-2-fluorovinyl]benzyl}-N-isopropylpropane-2-amine] | 1.5 nM
4 | Cc1cc(/C(F)=C/c2ccc(C(C)(C)C)cc2)nn1Cc1ccnc(N2CCN(CC(F)(F)F)CC2)c1 [Example 110, 1-[4-({3-[(Z)-2-(4-tert-Butylphenyl)-1-fluorovinyl]-5-methyl-1H-pyrazol-1-yl}methyl)pyridin-2-yl]-4-(2,2,2-trifluoroethyl)piperazine] | 1 nM
5 | Cc1ccc(Cn2nc(/C=C(\F)c3ccc(OC(F)(F)F)cc3)cc2C)cc1 [Example 111, 3-{(Z)-2-Fluoro-2-[4-(trifluoromethoxy)phenyl]vinyl}-5-methyl-1-(4-methylbenzyl)-1H-pyrazole] | 40 nM

Now from value to compound:

Row | IC50 | Structure (SMILES)
6 | 0.5 nM | Cc1cc(/C(F)=C/c2ccc(OC(F)(F)F)cc2)nn1Cc1ccnc(N2CCN(C3CC3)CC2)c1 [Example 102, 1-Cyclopropyl-4-{4-[(3-{(Z)-1-fluoro-2-[4-(trifluoromethoxy)phenyl]vinyl}-5-methyl-1H-pyrazol-1-yl)methyl]pyridin-2-yl}piperazine]
7 | 2.5 nM | Cc1cc(/C(F)=C/c2ccc(OC(F)(F)F)c(Cl)c2)nn1Cc1ccnc(N2CCN(C3CC3)CC2)c1 [Example 103, 1-{4-[(3-{(Z)-2-[3-Chloro-4-(trifluoromethoxy)phenyl]-1-fluorovinyl}-5-methyl-1H-pyrazol-1-yl)-methyl]pyridin-2-yl}-4-cyclopropylpiperazine]
8 | 0.4 nM | Cc1cc(/C(F)=C/c2ccc(C(C)(C)C(F)(F)F)cc2)nn1Cc1ccnc(N2CCN(C3CC3)CC2)c1 [Example 104, 1-Cyclopropyl-4-{4-[(3-{(Z)-1-fluoro-2-[4-(1,1,1-trifluoro-2-methylpropan-2-yl)phenyl]vinyl}-5-methyl-1H-pyrazol-1-yl)methyl]pyridin-2-yl}piperazine]
9 | 0.5 nM | Cc1cc(/C(F)=C/c2ccc(C3(C(F)(F)F)CC3)cc2)nn1Cc1ccnc(N2CCN(C3CC3)CC2)c1 [Example 105, 1-Cyclopropyl-4-[4-({3-[(Z)-1-fluoro-2-{4-[1-(trifluoromethyl)cyclopropyl]phenyl}vinyl]-5-methyl-1H-pyrazol-1-yl}methyl)pyridin-2-yl]piperazine]
10 | 0.3 nM | Cc1cc(/C(F)=C/c2ccc(S(F)(F)(F)(F)F)cc2)nn1Cc1ccnc(N2CCN(C3CC3)CC2)c1 [Example 107, 1-Cyclopropyl-4-{4-[(3-{(Z)-1-fluoro-2-[4-(pentafluoro-λ^6-sulphanyl)phenyl]vinyl}-5-methyl-1H-pyrazol-1-yl)methyl]pyridin-2-yl}piperazine]
11 | 3 nM | Cc1cc(/C(F)=C/c2ccc(C(O)(C(F)(F)F)C(F)(F)F)cc2)nn1Cc1ccnc(N2CCN(C3CC3)CC2)c1 [Example 108, 2-{4-[(Z)-2-(1-{[2-(4-Cyclopropylpiperazin-1-yl)pyridin-4-yl]methyl}-5-methyl-1H-pyrazol-3-yl)-2-fluorovinyl]phenyl}-1,1,1,3,3,3-hexafluoropropan-2-ol]
